In patent US7582417B2, “Sequential reporter enzyme luminescence (SRL) methods and compositions for practicing the same” (The Board of Trustees of the Leland Stanford Junior …, priority 2006, dated 2009):

Key:
[1] = biological target: T1, mouse angiotensin receptor 1 (AGTR1) (Mus musculus, UniProt P29754); experiment: GPCR/arrestin β-gal complementation assay, AGTR1 cell line; assay type: cell-based
T1 construct: expressed in transfected cells; host or cells: C2C12 myoblasts, retrovirally transduced
T1 sequence (P29754 whole entry): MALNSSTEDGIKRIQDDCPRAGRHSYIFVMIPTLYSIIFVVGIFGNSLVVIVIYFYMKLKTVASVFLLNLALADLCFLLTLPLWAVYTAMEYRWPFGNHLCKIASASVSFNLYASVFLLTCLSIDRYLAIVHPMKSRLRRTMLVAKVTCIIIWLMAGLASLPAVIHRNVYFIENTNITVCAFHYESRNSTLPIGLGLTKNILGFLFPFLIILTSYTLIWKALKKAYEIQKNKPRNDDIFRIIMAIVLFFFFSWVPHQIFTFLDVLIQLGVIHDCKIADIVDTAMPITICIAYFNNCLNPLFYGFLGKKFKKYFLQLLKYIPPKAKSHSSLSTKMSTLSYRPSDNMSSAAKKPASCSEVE
T1 sequence (P32121 whole entry partner): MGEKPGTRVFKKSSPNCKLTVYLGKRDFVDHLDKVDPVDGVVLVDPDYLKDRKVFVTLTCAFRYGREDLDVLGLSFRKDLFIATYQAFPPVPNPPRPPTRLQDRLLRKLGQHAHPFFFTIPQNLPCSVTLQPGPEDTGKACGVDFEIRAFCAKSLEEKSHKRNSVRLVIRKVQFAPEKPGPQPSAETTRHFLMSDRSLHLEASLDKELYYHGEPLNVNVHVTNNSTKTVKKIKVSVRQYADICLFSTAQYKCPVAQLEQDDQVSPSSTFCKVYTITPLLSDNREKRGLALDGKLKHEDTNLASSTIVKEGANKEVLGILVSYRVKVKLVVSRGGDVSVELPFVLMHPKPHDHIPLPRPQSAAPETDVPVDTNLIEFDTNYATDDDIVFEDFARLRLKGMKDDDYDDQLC
Procedure: Cells expressing the GPCR-α* and β-arrestin2-ω fusions were seeded at 20,000 cells/well in a 96-well dish overnight. Ligand was added for 1 hour. Media is aspirated and 50 ul of lysis solution (buffer A) and substrate (Gal-screen) in a 25:1 ratio was added to each well. The plates were incubated for 60-90 min at room temperature before reading in a TR717 luminometer with an integration time of 1 second. EC50 values were calculated using non-linear regression with a variable slope sigmoidal dose response algorithm in Prism software (Graphpad).
To test the sensitivity of the GPCR/arrestin assay, each cell line was plated in a 96-well dish and treated for 60 minutes with escalating doses of the indicated agonist (FIG. 9B). β-gal activity was measured using a luminescent substrate (Tropix).

[2] = published value; cited from earlier work
[3] = biological target: T2, somatostatin 2 receptor (SSTR2) (Homo sapiens, UniProt P30874); experiment: In vivo luminescent imaging of somatostatin 2 receptor activation (SSTR2/Fluc cells in BALB/c nude mice, Lugal); conditions: after octreotide i.p.
T2 construct: expressed in transfected cells; host or cells: C2C12 myoblasts, retrovirally transduced; the in vivo cells also carry Ras and FLuc
T2 sequence (P30874 whole entry): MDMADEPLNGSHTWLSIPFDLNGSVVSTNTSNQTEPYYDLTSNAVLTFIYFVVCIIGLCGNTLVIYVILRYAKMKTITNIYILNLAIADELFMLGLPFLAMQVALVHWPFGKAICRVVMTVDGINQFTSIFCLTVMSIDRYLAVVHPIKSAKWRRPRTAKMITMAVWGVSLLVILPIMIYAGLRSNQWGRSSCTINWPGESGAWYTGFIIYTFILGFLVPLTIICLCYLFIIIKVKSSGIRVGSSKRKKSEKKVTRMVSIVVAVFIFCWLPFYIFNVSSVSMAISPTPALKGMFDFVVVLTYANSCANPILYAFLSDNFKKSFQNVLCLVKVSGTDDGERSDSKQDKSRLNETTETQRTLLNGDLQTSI
T2 sequence (P32121 whole entry partner): as the sequence (P32121 whole entry partner) above
Excerpt: All protocols were approved by the Administrative Panel on Laboratory Animal Care at Stanford University School of Medicine. BALB/c nude were obtained from the Stanford University in-house colony. C2C12 myoblasts were harvested and suspended in 0.5% BSA in PBS at a final concentration of 10^8 cells/ml for injection. 4×10^6 cells carrying the β2/arrestin β-gal/Ras/FLuc or the SSTR2/arrestin β-gal/Ras/FLuc constructs were subcutaneously into the back of mice (2 injections/mouse), and allowed to grow into small tumors over 7 to 14 days.
Imaging was carried out using a Xenogen-100 device as previously described. Briefly, the system is composed of a light-tight imaging chamber, a digital CCD camera colled by a cryogenic refrigeration unit and a computer system (Living Image™ 2.50 software, Xenogen, Alameda).
We engineered new cell lines carrying the SSTR2/arrestin-β-galactosidase construct by retroviral transduction with the Fluc and ras genes (SSTR2/Fluc).

[4] = biological target: β-gal activity in FLuc/LacZ C2C12 cells (Escherichia coli, UniProt P00722)
Chain of β-gal activity in FLuc/LacZ C2C12 cells (P00722 whole entry): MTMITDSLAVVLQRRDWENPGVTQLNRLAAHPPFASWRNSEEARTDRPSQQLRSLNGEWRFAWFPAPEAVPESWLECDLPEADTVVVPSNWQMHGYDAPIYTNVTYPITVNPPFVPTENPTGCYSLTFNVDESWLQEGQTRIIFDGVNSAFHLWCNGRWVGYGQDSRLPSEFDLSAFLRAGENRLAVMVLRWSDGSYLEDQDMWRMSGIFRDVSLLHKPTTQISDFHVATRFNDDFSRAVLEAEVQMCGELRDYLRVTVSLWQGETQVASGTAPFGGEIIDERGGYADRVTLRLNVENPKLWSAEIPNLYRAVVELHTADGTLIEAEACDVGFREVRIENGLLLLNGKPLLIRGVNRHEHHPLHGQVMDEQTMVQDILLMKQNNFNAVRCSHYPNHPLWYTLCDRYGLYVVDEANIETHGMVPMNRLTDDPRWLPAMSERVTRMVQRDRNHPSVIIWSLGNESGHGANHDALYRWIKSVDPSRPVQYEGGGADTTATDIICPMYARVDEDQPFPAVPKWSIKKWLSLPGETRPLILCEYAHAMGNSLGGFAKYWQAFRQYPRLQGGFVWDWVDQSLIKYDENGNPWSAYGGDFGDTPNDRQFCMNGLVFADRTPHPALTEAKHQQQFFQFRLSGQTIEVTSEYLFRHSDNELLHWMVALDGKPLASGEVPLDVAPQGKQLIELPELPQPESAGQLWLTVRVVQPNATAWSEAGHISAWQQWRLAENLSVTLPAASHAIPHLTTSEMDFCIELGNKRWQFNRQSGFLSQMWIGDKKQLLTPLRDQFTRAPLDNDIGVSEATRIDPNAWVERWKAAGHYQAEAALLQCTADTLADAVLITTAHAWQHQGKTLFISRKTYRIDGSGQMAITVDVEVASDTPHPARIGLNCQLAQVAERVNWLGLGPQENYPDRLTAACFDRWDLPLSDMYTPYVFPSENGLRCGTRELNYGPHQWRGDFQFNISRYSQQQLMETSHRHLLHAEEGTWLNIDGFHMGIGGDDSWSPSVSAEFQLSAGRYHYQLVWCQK
Procedure: The parental MFG-IRES-lyt-2 construct was used to generate the lyt-2 expressing myoblasts. Retroviral transduction was performed using the ecotropic ΦNX packaging cell line (generous gift of GP Nolan). This line was transiently transfected with the proviral constructs using Fugene transfection reagent (Boehringer Mannheim). […] Polybrene was added to a final concentration of 8 μg/ml (Sigma) and cells were spun at 2,000 RPM in a Beckman GS-6 centrifuge. Cells transduced with the Luciferase-IRES-lyt-2 construct or the parental MFG-IRES-lyt-2 construct were stained with an anti-lyt-2 antibody conjugated to APC (BD Pharmingen). Cells were sorted by FACS on a Becton Dickinson flow cytometer with MoFlo electronics. […] For the in vitro cell studies, C2C12 cells were seeded in growth medium into a 384-well dish. […] The plate was read on a Tropix TR717 luminometer at room temperature with an integration time of 1 s/well. […] Cell lysates were prepared by aspirating the media and adding 15 ul of lysis buffer (1% Triton-X100, 50 mM Tris-HCl, 10 mM MgCl2, 10 mM DTT, 1 mM ATP, pH 7.5). For wells with intact cells, 15 ul of PBS was substituted for lysis buffer. The substrates were added at equivalent volumes to bring the reaction volume to 30 ul.

[5] = biological target: T3, β-gal activity of implanted FLuc/LacZ cells (Escherichia coli, UniProt P00722)
T3 sequence (P00722 whole entry): as above
Procedure: Imaging was performed using a Xenogen-100 device as previously described (Cao et al., supra). Briefly, the system is comprised of a light-tight imaging chamber, a cooled digital CCD camera with a cryogenic refrigeration unit and the appropriate computer system (Living Image™ 2.50 software, Xenogen, Alameda). […] C2C12 myoblasts were harvested and suspended in 0.5% BSA in PBS at a final concentration of 10^8 cells/ml for injection. For experiment shown in FIG. 1e, 10^6 cells expressing LacZ and FLuc (FLuc/LacZ cells) were injected into the right tibialis anterior muscle (TA) and 10^6 cells expressing FLuc only (FLuc cells) into the left TA of BALB/c nude mice. […] For experiment shown in FIGS. 2a and 2b, a range of cell numbers between 5×10^4 and 2×10^6 were injected subcutaneously in 10 different locations of the back of BALB/c nude mice.

[6] = biological target: T3, β-gal activity of implanted FLuc/LacZ cells; experiment: Near-infrared fluorescent imaging of β-gal activity with DDAOG; assay type: in vivo, mouse; set-up: expressed in transfected cells; host or cells: C2C12 mouse myoblasts, retrovirally transduced (FLuc/LacZ cells); conditions: 1×10^6 cells, right vs left leg
Procedure: The near-infrared imaging probe DDAOG (Molecular Probes) was injected intravenously (0.5 mg of DDAOG in 100 μl of DMSO and PBS (1:1)). NIRF reflectance imaging was performed using an IVIS-200 imager (Xenogen) with a custom filter set (excitation: 615-645; emission: 680-720 nm) (Omega Optical). Images were continuously acquired over 45 min after substrate injection and the images showing optimal signal-to-noise ratios were chosen for comparison.

angiotensin (DRVYIHPF; Angiotensin-2; UniProt P01019 25-32, looked up) [AGTR1 agonist obtained from Sigma]
EC50 [1]: in good agreement with radiolabeled ligand binding assays
increase in β-galactosidase activity ([1]; 60 minutes agonist): greater than 15 fold

CC(C)NCC(O)c1ccc(O)c(O)c1 (stereo not drawn) [isoproterenol]
serum half life [2]: approx. 2 hours

C[C@@H](O)[C@@H]1NC(=O)[C@H](CCCCN)NC(=O)[C@@H](Cc2c[nH]c3ccccc23)NC(=O)[C@H](Cc2ccccc2)NC(=O)[C@@H](NC(=O)[C@H](N)Cc2ccccc2)CSSC[C@@H](C(=O)N[C@H](CO)[C@@H](C)O)NC1=O [octreotide]
time for luminescence to return to baseline [3]: 24 h
time for luminescence to return to baseline ([3]; listed as Octreotide): ≤ 24 h
serum half life [2]: approx. 6 hours

D-luciferin-O-β-galactopyranoside [Lugal]
Lugal concentration at which strong luminescent signals were generated ([4]; FLuc/LacZ C2C12 cells, 384-well dish, concentrations as low as): 10 µg/mL
Lugal concentration at which a measurable signal was generated without β-gal ([4]; cells expressing FLuc alone, only at the highest concentration): 1000 µg/mL
bioluminescence signal of FLuc/LacZ cells relative to FLuc cells ([5]; 1×10^6 cells per tibialis anterior, right vs left leg, i.p. Lugal): 30-200 fold
signal-to-noise ratio, luminescence imaging, leg muscles ([5]; 1×10^6 cells, right vs left leg): 429 fold
signal-to-noise ratio of Lugal relative to DDAOG, deeper tissues (skeletal muscle) ([5]; higher with Lugal): 150 fold

CC1(C)C2=C(Cl)C(=O)C(Cl)=CC2=Nc2ccc(O[C@@H]3O[C@H](CO)[C@H](O)[C@H](O)[C@H]3O)cc21 [DDAOG, 7-hydroxy-9H-(1,3-dichloro-9,9-dimethylacridin-2-one) β-D-galactoside]
signal-to-noise ratio, fluorescence imaging, leg muscles [6]: 2.8 fold
